Key:
c-Kit(V654A) = molecular target: T1, c-Kit(V654A) (Homo sapiens, UniProt P10721, V654A); test: c-Kit(V654A) assay (33P-ATP filter binding kinase assay); assay type: biochemical; conditions: recombinant human c-Kit aa 544-end V654A, ATP 200 μM
T1 construct: recombinant human c-Kit, amino acids 544-end containing the V654A mutation; GST (N)
Method in brief: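 Radiometric filter-binding read-out: substrate 33P incorporation counted by scintillation after P30 filtermat washes in 75 mM phosphoric acid and methanol. Enzyme: N-GST recombinant human c-Kit aa 544-end carrying V654A.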

[1] = molecular target: T2, GIST430/654 cell line expressing mutated constitutively active cKIT receptor tyrosine kinase (Δ560-576 deletion and V654A point mutation) (Homo sapiens, UniProt P10721, DEL560-576/V654A); test: Cellular cKIT autophosphorylation (phospho-Y307-cKIT, Luminex bead assay) in GIST430/654 cells; assay type: cell-based; conditions: compounds 45 min, read-out: GIST 430/654 IC50
T2 construct: endogenous in cells; host or cells: GIST430/654 cells
T2 sequence (P10721 with tags, fused parts or gaps DEL560-576/V654A): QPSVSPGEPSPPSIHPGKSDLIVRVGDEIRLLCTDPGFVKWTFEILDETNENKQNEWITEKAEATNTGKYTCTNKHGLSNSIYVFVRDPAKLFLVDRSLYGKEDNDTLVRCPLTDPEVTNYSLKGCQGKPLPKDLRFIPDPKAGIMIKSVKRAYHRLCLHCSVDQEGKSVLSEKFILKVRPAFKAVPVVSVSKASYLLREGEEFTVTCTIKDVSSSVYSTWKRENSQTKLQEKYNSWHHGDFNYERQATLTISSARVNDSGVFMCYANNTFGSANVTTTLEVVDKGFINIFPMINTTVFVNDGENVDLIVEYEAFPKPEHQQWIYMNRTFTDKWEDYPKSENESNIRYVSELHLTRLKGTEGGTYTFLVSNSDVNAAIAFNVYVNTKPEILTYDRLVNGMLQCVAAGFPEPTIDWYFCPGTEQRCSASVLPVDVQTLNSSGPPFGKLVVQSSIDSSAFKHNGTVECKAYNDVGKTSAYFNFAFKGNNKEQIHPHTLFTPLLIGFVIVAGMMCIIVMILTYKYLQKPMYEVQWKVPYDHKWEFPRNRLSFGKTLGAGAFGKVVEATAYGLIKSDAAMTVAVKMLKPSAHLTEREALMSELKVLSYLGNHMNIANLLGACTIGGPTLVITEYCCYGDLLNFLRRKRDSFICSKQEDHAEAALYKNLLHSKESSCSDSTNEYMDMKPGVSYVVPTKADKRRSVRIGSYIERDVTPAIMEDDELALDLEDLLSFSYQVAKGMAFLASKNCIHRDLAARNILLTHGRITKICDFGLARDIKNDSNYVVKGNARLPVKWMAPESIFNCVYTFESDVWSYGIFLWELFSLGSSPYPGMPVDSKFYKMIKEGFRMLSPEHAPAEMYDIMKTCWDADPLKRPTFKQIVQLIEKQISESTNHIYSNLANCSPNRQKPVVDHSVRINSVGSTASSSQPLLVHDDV
Method in brief: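 GIST430 (Δ560-576) and imatinib-resistant GIST430/654 (plus V654A; grown with 100 nM imatinib) cells were plated in IMDM/15% FCS and treated next day with serially diluted compound for 45 min. Lysates were captured on anti-total-cKIT Luminex beads overnight at 4 °C and probed for phospho-Y307. IC50 was taken from percent of 0.3% DMSO control.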

T1 sequence (P10721 544-976 V654A): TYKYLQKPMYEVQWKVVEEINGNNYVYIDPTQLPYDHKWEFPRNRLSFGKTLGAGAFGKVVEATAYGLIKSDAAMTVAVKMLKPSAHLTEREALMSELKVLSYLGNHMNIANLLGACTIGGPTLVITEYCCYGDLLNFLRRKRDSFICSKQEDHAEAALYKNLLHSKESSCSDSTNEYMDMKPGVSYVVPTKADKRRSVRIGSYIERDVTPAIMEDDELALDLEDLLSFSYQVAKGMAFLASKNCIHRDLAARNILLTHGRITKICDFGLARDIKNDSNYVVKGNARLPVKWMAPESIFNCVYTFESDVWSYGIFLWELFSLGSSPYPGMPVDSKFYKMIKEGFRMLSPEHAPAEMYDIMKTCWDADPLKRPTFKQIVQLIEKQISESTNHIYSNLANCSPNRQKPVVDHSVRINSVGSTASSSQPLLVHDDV

SMILES | IC50 (c-Kit(V654A)) | IC50 [1]
CN1CCC(CCOc2ccn3c(-c4cc(NCc5ccc(-c6cnn(C)n6)cc5)ncn4)cnc3c2)C1 (stereo not drawn) [A116, (6-{7-[2-(1-methyl-pyrrolidin-3-yl)-ethoxy]-imidazo[1,2-a]pyridin-3-yl}-pyrimidin-4-yl)-[4-(2-methyl-2H-[1,2,3]triazol-4-yl)-benzyl]-amine] | 1.6 nM | 48 nM
CN1CCO[C@@H](COc2ccn3c(-c4cc(NCc5ccc(-c6cnn(C)c6)cc5)ncn4)cnc3c2)C1 [A117, {6-[7-((R)-4-methyl-morpholin-2-ylmethoxy)-imidazo[1,2-a]pyridin-3-yl]-pyrimidin-4-yl}-[4-(1-methyl-1H-pyrazol-4-yl)-benzyl]-amine] | 6 nM | 30 nM
CN1CCO[C@H](COc2ccn3c(-c4cc(NCc5ccc(-c6cnn(C)c6)cc5)ncn4)cnc3c2)C1 [A118, {6-[7-((S)-4-methyl-morpholin-2-ylmethoxy)-imidazo[1,2-a]pyridin-3-yl]-pyrimidin-4-yl}-[4-(1-methyl-1H-pyrazol-4-yl)-benzyl]-amine] | 4.7 nM | 40 nM
Cn1ncc(-c2ccc(CNc3cc(-c4cnc5cc(OCCC6CCN(C7COC7)C6)ccn45)ncn3)cc2)n1 (stereo not drawn) [A119, [4-(2-methyl-2H-[1,2,3]triazol-4-yl)-benzyl]-(6-{7-[2-(1-oxetan-3-yl-pyrrolidin-3-yl)-ethoxy]-imidazo[1,2-a]pyridin-3-yl}-pyrimidin-4-yl)-amine] | 3.4 nM | 62 nM
CN1CCO[C@@H](COc2ccn3c(-c4cc(NCc5ccc(-c6cnn(C)n6)cc5)ncn4)cnc3c2)C1 [A121, {6-[7-((R)-4-methyl-morpholin-2-ylmethoxy)-imidazo[1,2-a]pyridin-3-yl]-pyrimidin-4-yl}-[4-(2-methyl-2H-[1,2,3]triazol-4-yl)-benzyl]-amine] | 3.6 nM | 34 nM
CN1CCO[C@H](COc2ccn3c(-c4cc(NCc5ccc(-c6cnn(C)n6)cc5)ncn4)cnc3c2)C1 [A122, {6-[7-((S)-4-methyl-morpholin-2-ylmethoxy)-imidazo[1,2-a]pyridin-3-yl]-pyrimidin-4-yl}-[4-(2-methyl-2H-[1,2,3]triazol-4-yl)-benzyl]-amine] | 26 nM | 260 nM
Cn1cc(-c2ccc(CNc3cc(-c4cnc5cc(OCCC6CCN(C7COC7)C6)ccn45)ncn3)cc2)cn1 (stereo not drawn) [A123, [4-(1-methyl-1H-pyrazol-4-yl)-benzyl]-(6-{7-[2-(1-oxetan-3-yl-pyrrolidin-3-yl)-ethoxy]-imidazo[1,2-a]pyridin-3-yl}-pyrimidin-4-yl)-amine] | 5.8 nM | 56 nM
CN1CCOC[C@@H]1COc1ccn2c(-c3cc(NCc4ccc(-c5cnn(C)c5)cc4)ncn3)cnc2c1 [A124, N-{[4-(1-methyl-1H-pyrazol-4-yl)phenyl]methyl}-6-(7-{[(3R)-4-methylmorpholin-3-yl]methoxy}imidazo[1,2-a]pyridin-3-yl)pyrimidin-4-amine] | 7.4 nM | 53 nM
CN1CCOC[C@H]1COc1ccn2c(-c3cc(NCc4ccc(-c5cnn(C)c5)cc4)ncn3)cnc2c1 [A125, N-{[4-(1-methyl-1H-pyrazol-4-yl)phenyl]methyl}-6-(7-{[(3S)-4-methylmorpholin-3-yl]methoxy}imidazo[1,2-a]pyridin-3-yl)pyrimidin-4-amine] | 23 nM | 210 nM
Cn1ncc(-c2ccc(CNc3cc(-c4cnc5cc(OCCc6cccnc6)ccn45)ncn3)cc2)n1 [A126, [4-(2-methyl-2H-[1,2,3]triazol-4-yl)-benzyl]-{6-[7-(2-pyridin-3-yl-ethoxy)-imidazo[1,2-a]pyridin-3-yl]-pyrimidin-4-yl}-amine] | 16 nM | 140 nM
Cn1cc(-c2ccc(CNc3cc(-c4cnc5cc(OCCN6CC7CC7C6)ccn45)ncn3)cc2)cn1 (stereo not drawn) [A127, (6-{7-[2-(3-aza-bicyclo[3.1.0]hex-3-yl)-ethoxy]-imidazo[1,2-a]pyridin-3-yl}-pyrimidin-4-yl)-[4-(1-methyl-1H-pyrazol-4-yl)-benzyl]-amine] | 6.7 nM | 100 nM
Cn1ncc(-c2ccc(CNc3cc(-c4cnc5cc(OCCN6CC7CC7C6)ccn45)ncn3)cc2)n1 (stereo not drawn) [A128, (6-{7-[2-(3-aza-bicyclo[3.1.0]hex-3-yl)-ethoxy]-imidazo[1,2-a]pyridin-3-yl}-pyrimidin-4-yl)-[4-(2-methyl-2H-[1,2,3]triazol-4-yl)-benzyl]-amine] | 9.9 nM | 130 nM
CN1CCC(CCOc2ccn3c(-c4cc(NCc5ccc(-c6cnn(C)c6)cc5)ncn4)cnc3c2)CC1 [A129, (6-{7-[2-(1-methyl-piperidin-4-yl)-ethoxy]-imidazo[1,2-a]pyridin-3-yl}-pyrimidin-4-yl)-[4-(1-methyl-1H-pyrazol-4-yl)-benzyl]-amine] | 6.1 nM | 62 nM
CN1CCC(CCOc2ccn3c(-c4cc(NCc5ccc(-c6cnn(C)n6)cc5)ncn4)cnc3c2)CC1 [A130, (6-{7-[2-(1-methyl-piperidin-4-yl)-ethoxy]-imidazo[1,2-a]pyridin-3-yl}-pyrimidin-4-yl)-[4-(2-methyl-2H-[1,2,3]triazol-4-yl)-benzyl]-amine] | 3.5 nM | 40 nM
CN(C)CCCOc1ccn2c(-c3cc(NCc4ccc(-c5cnn(C)c5)cc4)ncn3)cnc2c1 [A132, {6-[7-(3-dimethylamino-propoxy)-imidazo[1,2-a]pyridin-3-yl]-pyrimidin-4-yl}-[4-(1-methyl-1H-pyrazol-4-yl)-benzyl]-amine] | 5 nM | 43 nM
Cn1ncc(-c2ccc(CNc3cc(-c4cnc5cc(OCCCO)ccn45)ncn3)cc2)n1 [A134, 3-(3-{6-[4-(2-methyl-2H-[1,2,3]triazol-4-yl)-benzylamino]-pyrimidin-4-yl}-imidazo[1,2-a]pyridin-7-yloxy)-propan-1-ol] | 4.6 nM | 52 nM
CN(C)CCCOc1ccn2c(-c3cc(NCc4ccc(-c5cnn(C)n5)cc4)ncn3)cnc2c1 [A135, {6-[7-(3-dimethylamino-propoxy)-imidazo[1,2-a]pyridin-3-yl]-pyrimidin-4-yl}-[4-(2-methyl-2H-[1,2,3]triazol-4-yl)-benzyl]-amine] | 2 nM | 210 nM
Cn1cc(-c2ccc(CNc3cc(-c4cnc5cc(OCCN6CCCC(F)(F)C6)ccn45)ncn3)cc2)cn1 [A136, 6-{7-[2-(3,3-difluoropiperidin-1-yl)ethoxy]imidazo[1,2-a]pyridin-3-yl}-N-{[4-(1-methyl-1H-pyrazol-4-yl)phenyl]methyl}pyrimidin-4-amine] | 10 nM | 150 nM
CCN(CC)CCCOc1ccn2c(-c3cc(NCc4ccc(-c5cnn(C)c5)cc4)ncn3)cnc2c1 [A137, 6-{7-[3-(diethylamino)propoxy]imidazo[1,2-a]pyridin-3-yl}-N-{[4-(1-methyl-1H-pyrazol-4-yl)phenyl]methyl}pyrimidin-4-amine] | 5.6 nM | 45 nM
Cn1cc(-c2ccc(CNc3cc(-c4cnc5cc(OCCN6CCS(=O)(=O)CC6)ccn45)ncn3)cc2)cn1 [A138, 4-[2-({3-[6-({[4-(1-methyl-1H-pyrazol-4-yl)phenyl]methyl}amino)pyrimidin-4-yl]imidazo[1,2-a]pyridin-7-yl}oxy)ethyl]-1lambda6-thiomorpholine-1,1-dione] | 6.9 nM | 64 nM
Cn1cc(-c2ccc(CNc3cc(-c4cnc5cc(OCCN6CC(F)(F)C6)ccn45)ncn3)cc2)cn1 [A139, 6-{7-[2-(3,3-difluoroazetidin-1-yl)ethoxy]imidazo[1,2-a]pyridin-3-yl}-N-{[4-(1-methyl-1H-pyrazol-4-yl)phenyl]methyl}pyrimidin-4-amine] | 9.6 nM | 160 nM
Cn1cc(-c2ccc(CNc3cc(-c4cnc5cc(OCCCN6CC(F)(F)C6)ccn45)ncn3)cc2)cn1 [A142, 6-{7-[3-(3,3-difluoroazetidin-1-yl)propoxy]imidazo[1,2-a]pyridin-3-yl}-N-{[4-(1-methyl-1H-pyrazol-4-yl)phenyl]methyl}pyrimidin-4-amine] | 7.3 nM | 65 nM
Cn1cc(-c2ccc(CNc3cc(-c4cnc5cc(OCCCS(C)(=O)=O)ccn45)ncn3)cc2)cn1 [A143, {6-[7-(3-methanesulfonyl-propoxy)-imidazo[1,2-a]pyridin-3-yl]-pyrimidin-4-yl}-[4-(1-methyl-1H-pyrazol-4-yl)-benzyl]-amine] | 21 nM | 380 nM
Cn1cc(-c2ccc(CNc3cc(-c4cnc5cc(OCCCN6CCCC6=O)ccn45)ncn3)cc2)cn1 [A145, 1-[3-({3-[6-({[4-(1-methyl-1H-pyrazol-4-yl)phenyl]methyl}amino)pyrimidin-4-yl]imidazo[1,2-a]pyridin-7-yl}oxy)propyl]pyrrolidin-2-one] | 41 nM | 250 nM
Fc1cc(N2CCCC2)ncc1CNc1cc(-c2cnc3ccccn23)ncn1 [A152, (4-fluoro-6-pyrrolidin-1-yl-pyridin-3-ylmethyl)-(6-imidazo[1,2-a]pyridin-3-yl-pyrimidin-4-yl)-amine] | 3.8 nM | 370 nM
c1ccn2c(-c3cc(NCc4ccc(-c5ncc[nH]5)cc4)ncn3)cnc2c1 [A157, (6-imidazo[1,2-a]pyridin-3-yl-pyrimidin-4-yl)-[4-(1H-imidazol-2-yl)-benzyl]-amine] | 33 nM | 1500 nM
Cn1cc(-c2ccc(CNc3cc(-c4cnc5cc(O)ccn45)ncn3)cc2)cn1 [A160, 3-[6-({[4-(1-methyl-1H-pyrazol-4-yl)phenyl]methyl}amino)pyrimidin-4-yl]imidazo[1,2-a]pyridin-7-ol] | 38 nM | 1000 nM

Source: US12655142B2 (Merck Patent GmbH, priority 2019, dated 2026)
